Measurements reported in PubChem BioAssay (NCI).
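The compound was tested at five concentrations on cells cultured in 96-well plates, with a 48-hour exposure period. At the TGI there is no net growth.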

How the values were obtained:
Experiment in all cases: DTP human tumour cell line panel, 48 h
OVCAR-4 ovarian = system: OVCAR-4 ovarian
SF-295 CNS = system: SF-295 CNS
MALME-3M melanoma = system: MALME-3M melanoma
NCI-H460 lung = system: NCI-H460 lung
IGROV1 ovarian = system: IGROV1 ovarian
UACC-257 melanoma = system: UACC-257 melanoma
SNB-19 CNS = system: SNB-19 CNS
HOP-92 NSCLC = system: HOP-92 NSCLC
UACC-62 melanoma = system: UACC-62 melanoma
NCI/ADR-RES ovarian = system: NCI/ADR-RES ovarian
ACHN renal = system: ACHN renal
MOLT-4 leukemia = system: MOLT-4 leukemia
SK-OV-3 ovarian = system: SK-OV-3 ovarian
NCI-H226 lung = system: NCI-H226 lung
NCI-H522 lung = system: NCI-H522 lung
LOX IMVI melanoma = system: LOX IMVI melanoma
CCRF-CEM leukemia = system: CCRF-CEM leukemia
NCI-H23 lung = system: NCI-H23 lung
OVCAR-3 ovarian = system: OVCAR-3 ovarian

| Structure (SMILES) | TGI (OVCAR-4 ovarian) [µM] | TGI (SF-295 CNS) [µM] | TGI (MALME-3M melanoma) [µM] | TGI (NCI-H460 lung) [µM] | TGI (IGROV1 ovarian) [µM] | TGI (UACC-257 melanoma) [µM] | TGI (SNB-19 CNS) [µM] | TGI (HOP-92 NSCLC) [µM] | TGI (UACC-62 melanoma) [µM] | TGI (NCI/ADR-RES ovarian) [µM] | TGI (ACHN renal) [µM] | TGI (MOLT-4 leukemia) [µM] | TGI (SK-OV-3 ovarian) [µM] | TGI (NCI-H226 lung) [µM] | TGI (NCI-H522 lung) [µM] | TGI (LOX IMVI melanoma) [µM] | TGI (CCRF-CEM leukemia) [µM] | TGI (NCI-H23 lung) [µM] | TGI (OVCAR-3 ovarian) [µM] |
| --- | --- | --- | --- | --- | --- | --- | --- | --- | --- | --- | --- | --- | --- | --- | --- | --- | --- | --- | --- |
| Nc1ccc(-c2cssc2=S)cc1 | > 100 | > 100 | > 100 | > 100 | > 100 | > 100 | > 100 | > 100 | 94.9 | > 100 | > 100 | > 100 | > 100 | > 100 | > 100 | > 100 |  |  |  |
| Cc1ccc(O)c(C(c2ccc([N+](=O)[O-])cc2)c2cc(C)ccc2O)c1 | 23.8 | 31.3 |  |  | 25.2 | 28.4 | 26.2 | 28.7 | 21.7 | 28.7 | 19.2 | 26.3 | 30 | 39.9 | 28.6 | 55.6 | 56.9 | 21.5 | 19.9 |
| O=C(NCCCCN(CCCNC(=O)C(F)(F)F)Cc1ccc2ccccc2c1)C(F)(F)F | 37.8 | 32.7 | 29.1 | 29.9 | 32.9 | 33.9 | 29 | 67.1 | 37 | 32.7 | 38.9 | 49 | 55.6 | 56.8 | 36.7 | 32.7 |  | 44.6 |  |
| Cn1c(-c2cccs2)cc(-c2ccccc2)c1-c1cccs1 | > 100 | > 100 |  | > 100 | > 100 | > 100 | 47.5 | > 100 | > 100 | > 100 | > 100 | > 100 | > 100 | > 100 | > 100 | > 100 | > 100 | > 100 | 47.6 |
| n1onc2c1NC1Nc3nonc3NC1N2 (centres undefined) | > 100 | > 100 |  | > 100 | > 100 |  | > 100 | > 100 |  | > 100 | > 100 | > 100 | > 100 | > 100 | > 100 | > 100 | > 100 | > 100 | > 100 |
| CN(C)c1nc2oc(-c3ccccc3)c(-c3ccccc3)c2c2nncn12 | > 100 | > 100 |  |  | > 100 | > 100 | > 100 | > 100 | > 100 | > 100 | > 100 |  | > 100 | > 100 | > 100 | > 100 | > 100 | > 100 |  |
